According to patent publication US11203601B2, “Tricyclic compounds as glycogen synthase kinase 3 (GSK3) inhibitors and uses thereof” (The Broad Institute, Inc., priority 2017, dated 2021):

Tests used:
GSK3β [1] = target: T1, GSK3β (Homo sapiens (Human), UniProt P49841); experiment: Mobility shift microfluidics assay; type: biochemical; conditions: 4.3 μM ATP, 60 minutes at room temperature
Experimental: (§6) Reactions were terminated by the addition of 10 mM ethylenediaminetetraacetic acid (EDTA). Substrate and product were separated electrophoretically, and fluorescence intensity of the substrate and product was determined by Labchip EZ Reader II (Caliper Life Sciences). The kinase activity was measured as percent conversion. The reactions were performed in duplicate for each sample. […] The results were analyzed by Genedata Assay Analyzer. The percent inhibition was plotted against the compound concentration, and the IC50 value was determined from the logistic dose-response curve fitting. Values are the average of at least three experiments.

GSK3α [2] = target: T2, GSK3α (Homo sapiens (Human), UniProt P49840); experiment: Mobility shift microfluidics assay; type: biochemical
Experimental: as §6

GSK3β [3] = target: T1, GSK3β; experiment: GSK3 beta biochemical assay (TR-FRET)
Experimental: (§7) 1 nM enzyme, 200 nM biotinylated peptide
(§8) 4 μM ATP (GSK3 alpha) or 2 μM ATP (GSK3 beta)
(§9) The reaction volume is 10 μL, and the final percent DMSO is 1%. The total volume of DMSO is therefore 100 nL. It is critical that the percentage of DMSO be controlled and consistent across the plate. […] The High control is with all assay components but no inhibitor, the low control is with all assay components but no enzyme.
(§10) Make 2× detection reagents in Invitrogen TR-FRET detection buffer for final 20 nM Strepavidin-d2, 1 nM Tb^2+-pSer641 antibody (using 20 μl as final volume). 2× detection=40 nM Strepavidin-d2, 2 nM Tb^2+-pSer641 antibody.
(§11) XLFit is used for results which are archived into a database. The data is normalized as a percentage of uninhibited control minus max inhibited controls.

GSK3α [4] = target: T2, GSK3α; experiment: GSK3 alpha biochemical assay (TR-FRET)
Experimental: as §7, §8, §9, §10, §11

Plasma stability, mouse = type: in vitro ADME, mouse (CD-1)
Experimental: (§1) Stability of compound in plasma was tested in duplicate by incubating compound at 5 μM for 5 hours at 37° C. Compound level at 5 hours was compared to level at 0 hours, and percent remaining was calculated. Binding to plasma proteins was tested in duplicate by incubating compound in plasma at 5 μM for 5 hours at 37° C. in the Rapid Equilibrium Dialysis (RED) Device. Compound level in plasma compartment was compared to compound level in buffer compartment to calculate percent bound. Order by selecting Plasma Stability and Plasma Protein Binding in Prometheus, checking boxes for desired species.
(§2) Available species: human, mouse (CD-1), and rat (Sprague-Dawley). Compound requirements: 15 μL of a 10 mM DMSO solution. Incubation time: 5 hours at 37° C. Test Concentration: 5 μM.

[5] = Liver microsomal stability, human; type: in vitro ADME; conditions: 1 μM, 60 minutes at 37° C.
Experimental: (§3) Stability of compound in liver microsomes was tested in duplicate by incubating compound at 1 μM for 60 minutes at 37° C. Compound level at 60 minutes was compared to level at 0 minutes, and percent remaining was calculated. Order by selecting Microsomal Stability in Prometheus, checking boxes for desired species.
(§4) Available species: human, mouse (CD-1), and rat (Sprague-Dawley). Compound requirements: 5 μL of a 10 mM DMSO solution. Incubation time: 60 minutes at 37° C. Test Concentration: 1 μM.
(§5) Microsomes with NADPH without compound-matrix interference. Microsomes plus compound without NADPH-non-enzymatic instability.

Plasma stability, human = type: in vitro ADME; conditions: human plasma, 5 μM, 5 hours at 37° C.
Experimental: as §1, §2

Solubility in PBS = conditions: 23 °C, aqueous buffer, thermodynamic from solid
Experimental: Solubility of compound was tested in triplicate by diluting a 10 mM DMSO solution with PBS. Maximum concentration of compound in solution was 100 μM.
Solubility of compound was tested in triplicate by drying down a 10 mM DMSO solution and then attempting to reconstitute in 100% PBS. Maximum concentration of compound in solution was 500 μM.
Compound requirements (1% DMSO in PBS): 30 μL of a 10 mM DMSO solution. Compound requirements (PBS-only): 60 μL of a 10 mM DMSO solution. Equilibration time: 18 hours at room temperature.

[6] = Liver microsomal stability, mouse; type: in vitro ADME, mouse (CD-1); conditions: 1 μM, 60 minutes at 37° C.
Experimental: as §3, §4, §5

MDR1 = experiment: MDR1/MDCK assay (Example 4); type: in vitro ADME; conditions: dog, MDCK-MDR1; for Papp A→B at 120 min, 5 μM / Papp B→A at 120 min, 5 μM: pH 7.4, 120 minutes; for efflux ratio at 120 min, 5 μM: (Papp B to A)/(Papp A to B)
Experimental: The MDR1/MDCK assay is run at Absorption Systems. This assay is used to determine the blood-brain barrier (BBB) penetration potential of a test compound using MDR1-MDCK cell monolayers. Catalog number EA203.
Substrate • Test compound at 5 μM in HBSSg with maximum DMSO concentration not greater than 1%. Assay System • Confluent monolayers of MDR1-MDCK cells, 7 to 11 days old. Assay Conditions • Receiver well with 1% BSA in modified Hanks buffer (HBSSg) • Apical and basolateral side at pH 7.4 • Dose two monolayers in each direction (N=2) • Dose apical side for (A to B) assessment • Dose basolateral side for (B to A) assessment • Sample both apical and basolateral sides at 120 minutes • Determine the concentrations of test compound using a generic LC-MS/MS method with a minimum 4 point calibration curve. Assay QC • The quality of the cell monolayer batch is verified using control compounds before monolayers are released for use • The quality of each monolayer used in the assay is verified by a TEER measurement and by calculating the Papp for a control compound. Solubility (SOL) 1% DMSO in PBS

[7] = GSK3β TR-FRET BIOCHEMICAL (TR-FRET) GMean IC50, 2 μM ATP (Km), 100 min at room temperature
[8] = GSK3α TR-FRET BIOCHEMICAL (TR-FRET) GMean IC50, 4 μM ATP (Km), 100 min at room temperature

T1 sequence (P49841 whole entry): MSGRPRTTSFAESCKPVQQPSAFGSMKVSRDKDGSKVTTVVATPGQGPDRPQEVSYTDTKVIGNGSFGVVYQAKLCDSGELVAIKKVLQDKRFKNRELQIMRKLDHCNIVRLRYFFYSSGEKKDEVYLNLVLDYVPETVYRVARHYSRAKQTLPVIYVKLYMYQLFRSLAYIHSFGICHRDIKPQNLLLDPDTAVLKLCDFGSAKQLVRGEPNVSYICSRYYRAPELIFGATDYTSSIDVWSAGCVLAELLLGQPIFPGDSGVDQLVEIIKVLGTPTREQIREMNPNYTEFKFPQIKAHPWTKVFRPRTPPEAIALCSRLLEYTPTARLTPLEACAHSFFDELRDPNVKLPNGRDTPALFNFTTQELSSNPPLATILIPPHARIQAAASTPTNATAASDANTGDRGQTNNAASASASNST
T2 sequence (P49840 whole entry): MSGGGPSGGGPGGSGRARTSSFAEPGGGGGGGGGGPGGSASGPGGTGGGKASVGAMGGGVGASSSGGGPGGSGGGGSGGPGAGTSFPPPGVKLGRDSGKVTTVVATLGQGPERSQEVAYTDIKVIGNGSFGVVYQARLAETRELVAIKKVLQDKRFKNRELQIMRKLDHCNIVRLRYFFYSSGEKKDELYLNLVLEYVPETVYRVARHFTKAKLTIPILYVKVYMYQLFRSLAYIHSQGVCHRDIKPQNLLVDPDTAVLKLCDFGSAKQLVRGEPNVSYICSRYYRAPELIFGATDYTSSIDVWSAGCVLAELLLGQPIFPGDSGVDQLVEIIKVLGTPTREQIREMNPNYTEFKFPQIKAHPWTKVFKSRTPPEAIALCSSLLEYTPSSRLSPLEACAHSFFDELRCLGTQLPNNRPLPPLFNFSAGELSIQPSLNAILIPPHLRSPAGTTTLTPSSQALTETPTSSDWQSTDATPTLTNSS

Row | Structure (SMILES) | IC50 (GSK3β [1]) [nM] | IC50 (GSK3α [2]) [nM] | IC50 (GSK3β [3]) [nM] | IC50 (GSK3α [4]) [nM] | further results
1 | CC1(C)CC(=O)C2=C(C1)Nc1ncsc1[C@@]2(C)c1ccccc1 | 28600 | 18500 |  |  | 
2 | CC1(C)CC(=O)C2=C(C1)Nc1ncsc1[C@]2(C)c1cccc(F)c1 | 455 | 203 |  |  | 
3 | CC1(C)CC(=O)C2=C(C1)Nc1ncsc1[C@@]2(C)c1cccc(F)c1 | 12500 | 6230 |  |  | 
4 | CC[C@]1(c2ccccc2)C2=C(CC(C)(C)CC2=O)Nc2ncsc21 | > 30000 | > 30000 |  |  | 
5 | CC[C@]1(c2cccc(OC)c2)C2=C(CC(C)(C)CC2=O)Nc2ncsc21 | 10500 | 10600 |  |  | 
6 | CC[C@@]1(c2ccccc2)C2=C(CC3(CCCCC3)CC2=O)Nc2ncsc21 | 447 | 155 |  |  | 
7 | CC[C@]1(c2ccccc2)C2=C(CC3(CCCCC3)CC2=O)Nc2ncsc21 | 1890 | 3660 |  |  | 
8 | CC[C@]1(c2cccc(F)c2)C2=C(CC(C)(C)CC2=O)Nc2ncsc21 (single isomer, unassigned) | > 30000 | > 30000 |  |  | 
9 | CC[C@@]1(c2cccc(Cl)c2)C2=C(CC(C)(C)CC2=O)Nc2ncsc21 (single isomer, unassigned) | 1180 | 293 |  |  | 
10 | CC[C@]1(c2cccc(Cl)c2)C2=C(CC(C)(C)CC2=O)Nc2ncsc21 (single isomer, unassigned) | > 30000 | > 30000 |  |  | 
11 | CC[C@@]1(c2cccc(OC)c2)C2=C(CC(C)(C)CC2=O)Nc2ncsc21 (single isomer, unassigned) | 110 | 24 |  |  | 
12 | CCC1(c2ccccc2)C2=C(CC(C)(C)CC2=O)Nc2ncsc21 (single isomer, unassigned) [Compound 1-E1, 9-Ethyl-6,6-dimethyl-9-phenyl-5,6,7,9-tetrahydrothiazolo[4,5-b]quinolin-8(4H)-one] |  |  |  |  | IC50 (GSK3β [3]; [7]): > 5000 nM; IC50 (GSK3α [4]; [8]): > 5000 nM
13 | CCC1(c2ccccc2)C2=C(Nc3ncsc31)C(C)CC(C)C2=O (stereo not drawn) [Compound 2] |  |  | 353 | 130 | 
14 | CCC1(c2ccccc2)C2=C(CCC(C)(C)C2=O)Nc2ncsc21 (stereo not drawn) [Compound 3] |  |  | 951 | 254 | 
15 | CCC1(c2ccccc2)C2=C(Nc3ncsc31)C(C)(C)CCC2=O (stereo not drawn) [Compound 4] |  |  | 627 | 174 | 
16 | CCC1(c2ccccc2)C2=C(CC3(CCCC3)CC2=O)Nc2ncsc21 (stereo not drawn) [Compound 5] |  |  | 366 | 80 | 
17 | CCC1(c2ccccc2)C2=C(CC(C)CC2=O)Nc2ncsc21 (stereo not drawn) [Compound 6] |  |  | 684 | 194 | 
18 | CCC1CC(=O)C2=C(C1)Nc1ncsc1C2(CC)c1ccccc1 (stereo not drawn) [Compound 7] |  |  | 592 | 171 | 
19 | CCC1(c2ccccc2)C2=C(CC(C(C)C)CC2=O)Nc2ncsc21 (stereo not drawn) [Compound 8] |  |  | 927 | 365 | 
20 | CCCC1CC(=O)C2=C(C1)Nc1ncsc1C2(CC)c1ccccc1 (stereo not drawn) [Compound 9] |  |  | 418 | 184 | 

Row | Structure (SMILES) | IC50 (GSK3β [1]) [nM] | IC50 (GSK3α [2]) [nM] | IC50 (GSK3β [3]) [nM] | IC50 (GSK3α [4]) [nM] | further results
21 | CCC1(c2ccccc2)C2=C(CC(CC(C)C)CC2=O)Nc2ncsc21 (stereo not drawn) [Compound 10] |  |  | 644 | 189 | 
22 | CCC1(c2ccccc2)C2=C(CCCC2=O)Nc2ncsc21 (stereo not drawn) [Compound 11] |  |  | > 1670 | 419 | 
23 | CCC1(c2ccc(C)cc2)C2=C(CC(C)(C)CC2=O)Nc2ncsc21 (stereo not drawn) [Compound 13] |  |  | 619 | 187 | 
24 | CCC1(c2cccc(Br)c2)C2=C(CC(C)(C)CC2=O)Nc2ncsc21 (stereo not drawn) [Compound 14] |  |  | 234 | 41 | 
25 | CCC1(c2ccccc2)C2=C(CC(C)(C)CC2=O)Nc2nc(C)sc21 (stereo not drawn) [Compound 15] |  |  | > 5000 | > 5000 | 
26 | CC1(C)CC(=O)C2=C(C1)Nc1ncsc1C21CCCc2ccccc21 (stereo not drawn) [Compound 16] |  |  | > 5000 | > 5000 | 
27 | CC1(C)CC(=O)C2=C(C1)Nc1ncsc1C21CCCCc2ccccc21 (stereo not drawn) [Compound 17] |  |  | > 5000 | > 5000 | 
28 | [2H]c1nc2c(s1)C(CC)(c1ccccc1)C1=C(CC(C)(C)CC1=O)N2 (stereo not drawn) [Compound 18] |  |  |  |  | IC50 (GSK3β [3]; [7]): 500 nM; IC50 (GSK3α [4]; [8]): 118 nM
29 | CCC1(c2ccccc2)C2=C(CC(C)(C)CC2=O)Nc2nc(Cl)sc21 (stereo not drawn) [Compound 19] |  |  | 4350 | 1990 | 
30 | CC1(C)CC(=O)C2=C(C1)Nc1ncsc1[C@]2(C)c1ccccc1 [drawing 153] | 384 | 238 |  |  | 
31 | CC[C@@]1(c2ccccc2)C2=C(CC(C)(C)CC2=O)Nc2ncsc21 [drawing 157] | 65 | 14 |  |  | 
32 | CC[C@@]1(c2cccc(F)c2)C2=C(CC(C)(C)CC2=O)Nc2ncsc21 [drawing 159] | 2270 | 599 |  |  | 
33 | CC[C@@]1(c2cccc(C)c2)C2=C(CC(C)(C)CC2=O)Nc2ncsc21 [drawing 163] | 245 | 69 |  |  | 
34 | CC[C@@]1(c2ccccc2)C2=C(CC(C)(C)CC2=O)Nc2n[nH]cc21 [drawing 170] | 507 |  |  |  | 
35 | CC1(C)CC(=O)C2=C(C1)Nc1n[nH]cc1[C@]2(C)c1ccccc1 [drawing 178] |  |  |  |  | Plasma Stability (Mouse, % remaining) (Plasma stability, mouse): 96.6%; Human Liver Microsomal Stability, % remaining [5]: 100%; Plasma Stability (Human, % remaining) (Plasma stability, human): 100%; solubility thermodynamic at 18 h (Solubility in PBS): > 500 µM; Mouse Liver Microsomal Stability, % remaining [6]: 100%
36 | CC1(C)CC(=O)C2=C(C1)Nc1ncsc1[C@]2(C)c1ccccc1 [drawing 181] |  |  |  |  | Papp A→B at 120 min, 5 μM (MDR1): 28.4 ×10⁻⁶ cm/s; Papp B→A at 120 min, 5 μM (MDR1): 62.8 ×10⁻⁶ cm/s; efflux ratio at 120 min, 5 μM (MDR1): 2.2
37 | CC[C@@]1(c2ccccc2)C2=C(CC(C)(C)CC2=O)Nc2ncsc21 [drawing 182] |  |  |  |  | Papp A→B at 120 min, 5 μM (MDR1): 24.2 ×10⁻⁶ cm/s; Papp B→A at 120 min, 5 μM (MDR1): 62.1 ×10⁻⁶ cm/s; efflux ratio at 120 min, 5 μM (MDR1): 2.6
38 | CC1(C)CC(=O)C2=C(C1)Nc1n[nH]cc1[C@]2(C)c1ccccc1 [drawing 183] |  |  |  |  | Papp A→B at 120 min, 5 μM (MDR1): 1.82 ×10⁻⁶ cm/s; Papp B→A at 120 min, 5 μM (MDR1): 66.1 ×10⁻⁶ cm/s
39 | CC[C@@]1(c2ccccc2)C2=C(CC(C)(C)CC2=O)Nc2n[nH]cc21 [drawing 184] |  |  |  |  | Papp A→B at 120 min, 5 μM (MDR1): 1.26 ×10⁻⁶ cm/s; Papp B→A at 120 min, 5 μM (MDR1): 57.7 ×10⁻⁶ cm/s
40 | Cc1c[nH]c(-c2cnc(NCCNc3ccc(C#N)cn3)nc2-c2ccc(Cl)cc2Cl)n1 [drawing 185] |  |  |  |  | Papp A→B at 120 min, 5 μM (MDR1): 6.5 ×10⁻⁶ cm/s; Papp B→A at 120 min, 5 μM (MDR1): 64.2 ×10⁻⁶ cm/s
